According to patent US20230277698A1, “SILICON-CONTAINING LIGAND COMPOUNDS” (Technische Universität München, priority 2020, published 2023):

Legend:
LNCaP cells = experiment: Internalization studies on LNCaP cells; assay type: cell-based; conditions: 177Lu-labelled, c=1.0 nM, 1 hour, 37 °C; % of reference ligand ([125I]I-BA)KuE (c=0.2 nM); corrected for non-specific binding (PMPA); mean±SD, n=3-6
Protocol: PSMA-positive LNCAP cells (300265; Cell Lines Service, Eppelheim, Germany) were cultivated in Dulbecco modified Eagle medium/Nutrition Mixture F-12 with Glutamax (1:1) (DMEM-F12, Biochrom, Berlin, Germany) supplemented with fetal bovine serum (10%, FBS Zellkultur, Berlin, Germany) and kept at 37° C. in a humidified CO2 atmosphere (5%). A mixture of trypsin and EDTA (0.05%, 0.02%) in PBS (Biochrom) was used in order to harvest cells. Cells were counted with a Neubauer hemocytometer (Paul Marienfeld, Lauda-Königshofen, Germany).
For internalization studies, LNCaP cells were harvested 24±2 hours before the experiment and seeded in poly-L-lysine coated 24-well plates (1.25×10^5 cells in 1 mL/well, Greiner Bio-One, Kremsmünster, Austria). After removal of the culture medium, the cells were washed once with 500 μL DMEM-F12 (5% BSA) and left to equilibrate for at least 15 min at 37° C. in 200 μL DMEM-F12 (5% BSA). Each well was treated with either 25 μL of either DMEM-F12 (5% BSA, control) or 25 μL of a 100 μM PMPA (2-(Phosphonomethyl)-pentandioic acid, Tocris Bioscience, Bristol, UK) solution in PBS, for blockade. Next, 25 μL of the radioactive-labelled PSMA inhibitor (10.0 nM in PBS) was added and the cells were incubated at 37° C. for 60 min. The experiment was terminated by placing the 24-well plate on ice for 3 min and consecutive removal of the medium. Each well was carefully washed with 250 μL of ice-cold HBSS. Both fractions from the first steps, representing the amount of free radioligand, were combined. Removal of surface bound activity was accomplished by incubation of the cells with 250 μL of ice-cold PMPA (10 μM in PBS) solution for 5 min and rinsed again with another 250 μL of ice-cold PBS. The internalized activity was determined by incubation of the cells in 250 μL 1 M aqueous NaOH for at least 10 min. The obtained fractions were combined with those of the subsequent wash step with 250 μL 1 M aqueous NaOH. Each experiment (control and blockade) was performed in triplicate. Free, surface bound and internalized activity was quantified in a γ-counter. All internalization studies were accompanied by external reference studies, using ([^125I]l-BA)KuE (c=0.2 nM), which were performed analogously. Data were corrected for non-specific binding and normalized to the specific-internalization observed for the radioiodinated reference compound.
Data is corrected for non-specific binding (10 μmol PMPA) and expressed as mean±SD (n=3-6): […]

[1] = target: human serum albumin (HSA) (Homo sapiens, UniProt P02768); experiment: HSA binding by radio inversed affinity chromatography (RIAC); assay type: in vitro ADME; conditions: 177Lu-labelled; Superdex 75 Increase 10/300 GL, 700 μM HSA in PBS, 0.8 mL/min
Sequence of human serum albumin (HSA) (P02768 25-609): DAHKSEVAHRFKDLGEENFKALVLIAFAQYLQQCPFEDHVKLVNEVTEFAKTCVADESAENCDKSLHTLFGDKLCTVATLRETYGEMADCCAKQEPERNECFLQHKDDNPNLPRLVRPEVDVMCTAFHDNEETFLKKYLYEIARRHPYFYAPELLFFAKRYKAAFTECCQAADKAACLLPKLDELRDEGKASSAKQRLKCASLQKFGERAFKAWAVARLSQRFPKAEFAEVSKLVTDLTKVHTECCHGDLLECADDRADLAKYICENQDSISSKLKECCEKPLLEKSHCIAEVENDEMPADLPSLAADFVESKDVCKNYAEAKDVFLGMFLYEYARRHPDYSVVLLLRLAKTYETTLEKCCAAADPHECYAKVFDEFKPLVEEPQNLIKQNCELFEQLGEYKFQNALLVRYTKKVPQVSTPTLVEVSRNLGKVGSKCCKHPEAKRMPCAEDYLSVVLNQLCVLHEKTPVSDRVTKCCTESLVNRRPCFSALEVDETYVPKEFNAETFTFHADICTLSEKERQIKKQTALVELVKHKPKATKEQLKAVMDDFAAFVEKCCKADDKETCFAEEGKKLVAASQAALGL
Protocol: A gel filtration column Superdex 75 Increase 10/300 GL (GE Healthcare, Uppsala, Sweden) was beforehand calibrated following the producer's recommendations with a commercially available gel filtration calibration kit (GE Healthcare, Buckinghamshire, UK) comprising conalbumin (MW: 75 kDa), ovalbumin (44 kDa), carbonic anhydrase (29 kDa), ribonuclease A (13.7 kDa) and aprotinin (6.5 kDa) as reference proteins of known molecular weight. RIAC experiments were conducted using a constant flow rate of 0.8 mL/min at rt. A solution of HSA in PBS at physiological concentration (700 μM) was used as the mobile phase. PSMA ligands were labelled as described with molar activities of 10-20 GBq/μmol. Probes of 1.0 MBq of the radioligand were injected directly from the labelling solution. HSA binding was expressed as an apparent molecular weight MW calculated from the retention time of the radioligand using the determined calibration curve.
The following table summarizes the underlying data. MW: molecular weight. tR: experimentally determined retention time. V: elution volume. Kav: partition coefficient.
RIAC, in an inversed way, comprises ligand samples (radiolabeled PSMA ligands) and a protein (HSA) containing mobile phase. Ligand-specific retention is caused by interaction of the ligand probe and HSA in the mobile phase. Unbound species, due to a molecular weight beneath the molecular cut off of the gel filtration column, are maximally retained while bound species are eluted in accordance to the higher molecular weight of the ligand-HSA-complex (MWHSA: 66.47 kDa). Experiments show a single radiopeak indicating a dynamic process of formation and dissociation of the ligand-HSA-complex throughout the passage through the column bed. Accordingly, the absolute retention time is the result of the ligand's mean time of abidance at HSA which is directly defined by the ligand's binding kinetics and affinity toward HSA. For evaluation, experimentally determined retention times tR are first converted into elution volumes Ve by multiplying with the flow rate and thereafter converted into partition coefficients Kav following the equation
where V0 is the column void volume (8.027 mL) and Vc is the geometric column volume (24 mL). Using the equation given by the trend line plot of the column calibration
the apparent molecular weight MW is calculated as
FIG. 7 and the table below show the results HSA-binding of lutetium-complexed PSMA-ligands and reference compounds determined by RIAC on a Superdex 75 Increase 10/300 GL column 700 μM HSA in PBS as solvent using a constant flow rate of 0.8 mL/min (plotted data, extracted from FIG. 8).
FIG. 8 illustrates the determination of HSA binding via radio inverse affinity chromatography (RIAC). Correlation of apparent molecular weight (MW) in Dalton (Da) and retention time of ^177Lu-labeled samples, determined on a Superdex 75 Increase 10/300 GL with 700 μM HSA in PBS as solvent using a constant flow rate of 0.8 mL/min.

[2] = system: LNCaP tumor-bearing CB17-SCID mice; experiment: Biodistribution studies 24 h p.i.; assay type: in vivo; conditions: 177Lu-labelled, mean±SD, n=4-5
Protocol: All animal experiments were conducted in accordance with general animal welfare regulations in Germany (German animal protection act, as amended on 18 May 2018, Art. 141 G v. 29.3.2017|626, approval no. 55.2-1-54-2532-71-13) and the institutional guidelines for the care and use of animals. To establish tumor xenografts, LNCaP cells (approx. 10^7 cells) were suspended in 200 μL of a 1:1 mixture (v/v) of DMEM F-12 and Matrigel (BD Biosciences, Germany), and inoculated subcutaneously onto the right shoulder of 6-8 weeks old CB17-SCID mice (Charles River, Sulzfeld, Germany). Mice were used for experiments when tumors had grown to a diameter of 5-10 mm (3-6 weeks after inoculation).
Approximately 5-10 MBq (0.1-0.2 nmol) of the radioactive-labelled PSMA inhibitors were injected into the tail vein of LNCaP tumor-bearing male CB-17 SCID mice and sacrificed after 24 h post injection. Selected organs were removed, weighted and measured in a γ-counter.
FIG. 10 and the following table show the biodistribution data 24 h p.i. of ^177Lu-labeled compounds in LNCaP tumor-bearing CB17-SCID mice. Data are expressed as mean±SD (n=4-5).

For `O=C(O)CC[C@H](NC(=O)N[C@@H](CCCCNC(=O)CCCCCCC(=O)NCCCC[C@@H](NC(=O)[C@@H](Cc1ccccc1)NC(=O)[C@@H](Cc1ccc(O)c(I)c1)NC(=O)CCC(C(=O)O)N1CCN(CC(=O)O)CCN(CC(=O)O)CCN(CC(=O)O)CC1)C(=O)O)C(=O)O)C(=O)O` (stereo partly drawn) [PSMA I&T, reference compound], the “Internalization (% IBA)” value (LNCaP cells) was 76 ± 2 % IBA, the “HSA-binding RIAC (apparent molecular weight)” value [1] was 5.3 kDa and the “biodistribution: tumor” value ([2]; LNCaP xenograft) was 4.1 ± 1.1 % ID/g. The “biodistribution: blood” value ([2]; i.v. tail vein) was 0.012 ± 0.01 % ID/g, the “biodistribution: adrenals” value [2] was 1.06 ± 0.24 % ID/g and the “biodistribution: bone” value [2] was 0.01 ± 0.01 % ID/g. The “biodistribution: heart” value [2] was 0.05 ± 0.03 % ID/g, the “biodistribution: intestine” value [2] was 0.12 ± 0.06 % ID/g and the “biodistribution: kidneys” value [2] was 34.7 ± 17.2 % ID/g. The “biodistribution: liver” value [2] was 0.05 ± 0.01 % ID/g, the “biodistribution: lung” value [2] was 0.16 ± 0.03 % ID/g and the “biodistribution: muscle” value [2] was 0.01 ± 0.01 % ID/g. For the same molecule, the “biodistribution: pancreas” value [2] was 0.05 ± 0.02 % ID/g, the “biodistribution: spleen” value [2] was 1.94 ± 1.01 % ID/g and the “biodistribution: stomach” value [2] was 0.05 ± 0.02 % ID/g.
